# Assay results as given in article PMC4784888, “Activity Based High-Throughput Screening for Novel O-GlcNAc Transferase Substrates Using a Dynamic Peptide Microarray” (PLoS ONE, 2016).
# Where no end group is shown, it is not given here.
# How the values were obtained:
# Type in all cases: biochemical, human
# purified m-OGT [1] = experiment: Ala scan of RBL-2_410–422 on peptide microarray; settings: 1 mM UDP-GlcNAc, 0.2 μg/μL purified m-OGT; for OGT activity against RBL-2_410–422 Ala mutants (in words): extra CG at NH2 terminal
# Experimental: (§1) One step OGT purification was performed using His60 Ni Gravity Flow Columns (Clontech) according to the manufacturer’s instructions. Briefly, the nickel column was equilibrated with a buffer containing 50 mM sodium phosphate, 300 sodium chloride, 20 mM imidazole, and pH 7.4, followed by incubation with cell lysate containing His tag OGT for 1h at 4°C. After washing several times using buffer containing 50 mM sodium phosphate, 300 sodium chloride, 40 mM imidazole, and pH 7.4, the recombinant OGT was eluted using elution buffer containing 50 mM sodium phosphate, 300 mM sodium chloride, 300 mM imidazole, and pH 7.4. The eluted fraction was concentrated through a 100,000 Da molecular weight cut off Amicon unit by centrifugation 10 min at 5000 RPM at 4°C.
# (§2) Peptide O-GlcNAcylation was assessed using PamChip 4 microarray chips with a PamStation 12 instrument (Pamgene international, The Netherlands). The OGT enzyme reaction was prepared essentially as described[26] with minor modifications. Briefly, before addition of the enzyme reaction, the microarray was blocked with blocking buffer (1% BSA in TBS). After 30 cycles (2 cycles/min) blocking, the blocking buffer was aspirated and the microarray was incubated with 40 μL of the enzyme reaction containing OGT (lysate or purified), OGT reaction buffer (50 mM Tris—HCl, pH 7.5;1 mM DTT;12.5 mM MgCl2), a 1:1 pre-incubated mixture of anti-O-GlcNAc and FITC conjugated secondary antibody, and the sugar donor UDP-GlcNAc or water as a control for 480 cycles (2 cycles/min) at 30°C. The microarray was run in parallel by pumping the reaction up and down through the porous membrane at every cycle and a tiff image was obtained at every 20 cycles by a CCD camera inside the PamStation. O-GlcNAcylation of each peptide was detected by a fluorescent signal which was produced by an FITC conjugated antibody bound to the O-GlcNAc moiety on the peptide.
# (§3) Image analysis was performed using BioNavigator 6 software (Pamgene international, The Netherlands). Briefly, each image was quantified by automated array grid finding and subsequent quantification of signal and local background for each individual spot. In this work, the signal median-minus-background value was used as the quantitative parameter for the O-GlcNAcylation of the peptide.
# Synthesis of all the peptides was achieved by following a standard Fmoc SPPS strategy on a Symphony Multiple Peptide Synthesizer and starting from rink amide resin. The following Fmoc amino acids were used: Fmoc-Cys(Trt)-OH, Fmoc-Gly-OH, Fmoc-Lys(Boc)-OH, Fmoc-Glu(Otbu)-OH, Fmoc-Asn(Trt)-OH, Fmoc-Ser(tBu)-OH, Fmoc-Thr(tBu)-OH, Fmoc-Ala-OH, Fmoc-Pro-OH, Fmoc-Val-OH. Deprotection was performed using 20% piperidine in DMF, and coupling was performed using 1:0.9:2 amino acid/ HBTU/DIPEA in DMF. After completion of the synthesis, the protected peptidyl resins were incubated with a 10 mL mixture of TFA (trifluoroacetic acid): H2O: triisopropylsilane (TIPS): 1, 2-ethanedithiol (EDT) (9:0.5:0.25:0.25, v/v/v/v) and allowed to stir for 2 h at room temperature under a nitrogen atmosphere. The cleaving mixture was filtered and the resin was washed with TFA (2 mL) and DCM (4 mL). The residue was precipitated by treatment of precooled diethyl ether and centrifugation. Two times washing and centrifugation yielded the crude products in a pellet. The precipitated peptides were dissolved in water, frozen, and lyophilized. All products were stored at -20°C. Crude peptide analysis was carried out by LC-MS.
# To further confirm this and investigate the role of this and surrounding amino acid residues in our activity based assay, we resynthesized the RBL-2 peptide present on the microarray and performed an Ala scan, thus replacing of all the possible O-GlcNAc sites (Ser and Thr) in RBL-2_420–422 (Fig 4A). To immobilize the peptides on the chip, all the peptides were prepared with an extra CG at the NH2 terminal to allow immobilization on the maleimide-based chip surface. […]
# m-OGT = experiment: UDP-Glo assay of RBL-2_410–422 peptides
# Experimental: as §1
# In this work OGT activity was also determined using UDP-Glo™ Glycosyltransferase Assay according to the manufacturer’s instructions. This assay evaluates O-GlcNAcylation through monitoring UDP formation in glycosyltransferase reactions by luminescence. Briefly, OGT reactions were carried out in 100 μL final volume containing 0.5 mM UDP-GlcNAc, 6 μg purified/60 μg lysate enzyme, 100 μM peptide in OGT reaction buffer (50 mM Tris—HCl, pH 7.5;1 mM DTT;12.5 mM MgCl2). Reactions were incubated at room temperature for 2h. At the end of that period, each reaction was transferred in triplicate into a 96-well white microplate and was mixed with a 1:1 ratio of UDP-Glo Detection Reagent. After incubation at room temperature for 1h, the luminescence was recorded with a Mithras LB940 Multimode microplate reader using Mikro Win 2000 software (Berthold Technology, Germany).
# To further confirm this and investigate the role of this and surrounding amino acid residues in our activity based assay, we resynthesized the RBL-2 peptide present on the microarray and performed an Ala scan, thus replacing of all the possible O-GlcNAc sites (Ser and Thr) in RBL-2_420–422 (Fig 4A). To immobilize the peptides on the chip, all the peptides were prepared with an extra CG at the NH2 terminal to allow immobilization on the maleimide-based chip surface. Cys 415 was replaced by an Ala to avoid cyclisation by disulfide bond formation or dual modes of immobilization (S2 Fig). […] The mutants T421A decreased the O-GlcNAcylation of RBL-2_420–422 peptide by 40% compared to the control (wild type with C415A). […] In addition, OGT activity against these peptides was further validated using the UDP-Glo assay, which measures the amount of UDP produced when GlcNAc is transferred from UDP-GlcNAc to the sugar accepting peptide. […] This might be because the UDP assay is more sensitive than the antibody-based detection.
# Fig 4 S420A is a possible O-GlcNAc site in the RBL-2 protein. A, peptide mutant used for an Ala scan. For immobilization purposes, peptides were prepared with an extra CG at the N-terminus and Cys 415 was replaced by Ala. B, OGT activity against RBL-2_410–422 peptide mutants was determined using peptide microarray analysis with 0.2 μg/μL purified m-OGT and 1 mM UDP-GlcNAc. C, UDP-Glo assay was used to measure O-GlcNAcylation of RBL-2_410–422 peptide mutants as well. D, kinetic signals from the same microarray experiment of panel B are shown.
# O-GlcNAcylation of wild type RBL-2-410-422 and C415A peptide was determined using both the UDP assay(A) and the microarray assay (B) with 1 mM UDP-GlcNAc and 0.2 μg/μL purified m-OGT. […] (TIF) Click here for additional data file.
# purified m-OGT [2] = experiment: Inhibition of OGT activity by RBL-2_S420A 410–422 peptide on nuclear receptor interaction peptide microarray; settings: purified m-OGT (0.2 μg/μL), UDP-GlcNAc 0.5 mM; for inhibition of OGT activity (in words): peptide 0.5 mM
# Experimental: as §1, §2, §3
# We then used the identified substrate sequence as a starting point towards the discovery of novel selective OGT inhibitors. […] To test it, we determined its inhibitory effect on the O-GlcNAcylation of two OGT substrates identified in our work and a known OGT inhibitor was used as a positive control.
# Fig 5 The RBL-2_S420A 410–422 peptide inhibited OGT activity. The inhibitory effect of RBL-2_S420A 410–422 peptide on OGT activity was determined on the nuclear receptor interaction peptide microarray. […]
# [3] = microarray, control wild type with C415A
# [4] = UDP-Glo, luminescence, 0.5 mM UDP-GlcNAc, 6 μg purified enzyme, 100 μM peptide, 50 mM Tris-HCl pH 7.5, room temperature 2 h, triplicate
substance,measurement,setting,value
"C415A: RBL-2_410–422 peptide with Cys 415 replaced by an Ala (CGKENSPAVTPVSTA-NH2; UniProt Q08999 410-422, looked up, variant C415A)","C415A effect on O-GlcNAcylation, overall statement",purified m-OGT [1]; UDP assay and microarray,modest effect on O-GlcNAcylation
same,"OGT activity of C415A compared with wild type, UDP assay","m-OGT; UDP assay, 1 mM UDP-GlcNAc, 0.2 μg/μL purified m-OGT",modest increase in OGT activity
RBL-2_S420A 410–422: S420A mutation peptide of RBL-2 410–422 tested as OGT inhibitor (CGKENSPAVTPVATA-NH2),inhibition of O-GlcNAcylation of NCOA6,"purified m-OGT [2]; 500 μM S420A peptide, NCOA6_1479–1501 substrate",50%
same,inhibition of O-GlcNAcylation of WIPI 1,"purified m-OGT [2]; 500 μM S420A peptide, WIPI 1 substrate",50%
same,inhibition of OGT activity (in words),purified m-OGT [2],still binds to the OGT active site and therefore inhibited OGT activity
same,inhibition of OGT activity (in words),purified m-OGT [2]; listed as RBL-2_S420A 420–422,significant inhibition of OGT activity
S413A: Ala scan mutant of RBL-2_410–422,OGT activity against RBL-2_410–422 Ala mutants (in words),purified m-OGT [1]; [3],did not show any effect
same,O-GlcNAcylation activity in solution (in words),m-OGT; [4],consistent with the microarray results
S420A: Ala scan mutant of RBL-2_410–422 (CGKENSPAVTPVATA-NH2),OGT activity against RBL-2_410–422 Ala mutants (in words),purified m-OGT [1]; [3],complete loss of OGT activity
same,O-GlcNAcylation activity in solution (in words),m-OGT; [4],consistent with the microarray results
T417A: Ala scan mutant of RBL-2_410–422 (CGKENSPAVAPVSTA-NH2),OGT activity against RBL-2_410–422 Ala mutants (in words),purified m-OGT [1]; [3],complete loss of OGT activity
same,remaining O-GlcNAcylation,m-OGT; [4],20%
T421A: Ala scan mutant of RBL-2_410–422 (CGKENSPAVTPVSAA-NH2),decrease of O-GlcNAcylation compared to control,purified m-OGT [1]; [3],40%
same,O-GlcNAcylation activity in solution (in words),m-OGT; [4],consistent with the microarray results
